The results in this text go back to patent publication US20140066362A1, “METHOD FOR TREATING INFECTIONS BY TARGETING MICROBIAL H2S-PRODUCING ENZYMES” (NEW YORK UNIVERSITY, priority 2011, published 2014).

Like-named read-outs stand apart in the source and are kept apart here.

One test has as its system CBS/CSE. Format: cell-based, B. anthracis, S. aureus, P. aeruginosa. The note with it: chemical inhibition of CSE (PAG) or CBS (AOAA), 18 hours culture.
The next test concerns E. coli cells. In kind it is cell-based. The note with it: pretreatment for 3 min, 2,2′-dipyridyl 0.05 mM or thiourea 15 mM, then Gm.
A further test relates to Wt E. coli cells. In kind it is cell-based. As to conditions: then H2O2 2 mM for 10 min.
The next test has as its system E. faecium A2373. In words: MIC of antibiotics with or without PAG/AOAA. Format: cell-based. The note with it: for MIC: Enterococcus faecium. As for the experimental part:
(§1) E. faecalis (ATCC 29212) cultures were prepared at initial inoculums of ˜5×10^5 CFU/ml in Mueller-Hinton II Broth (cation-adjusted). Aliquots of 190 μl were dispensed to each well of a fresh set of plates, and 10 μl of an antibiotic solution (levofloxacin, meropenem, gentamicin, piperacillin, linezolid, cefepime, daptomycin, vancomycin, or chloramphemicol) were transferred to the corresponding wells in each bacterial plate (FIG. 13). For each antibiotic, the starting concentration was 2×MIC (minimum inhibitory concentration) with serial ½ dilutions. Two sets of dilutions were prepared, and to one of them 0.1 mM AOAA was added. The resulting plates were kept at 37° C. and 85% humidity for 20 hours. All nine antibiotics tested were potentiated by AOAA, with respective MICs dropped from 8-fold to 32-fold (FIG. 13).
(§2) Minimum inhibitory concentration (MIC) determination was conducted as described in Example 7, above. To assess antibiotic potentiation by AOAA and PAG, MIC was determined for nine antibiotics (levofloxacin, meropenem, gentamicin, piperacillin, linezolid, cefepime, daptomycin, vancomycin, and chloramphemicol) and four bacterial strains (E. faecium (A2373), E. faecalis ([…]), S. pneumoniae (ATCC 49619), and P. aeruginosa (PAO1)) in the presence of antibiotic alone, 1 mM PAG, 0.1 mM AOAA, or 0.5 mM PAG+0.05 mM AOAA. The smaller the MIC value, the stronger the effect of antibiotic potentiation.

The next test deals with E. faecalis ATCC29212. In words: MIC of antibiotics with or without PAG/AOAA. As to conditions: for MIC: Enterococcus faecalis. Format: cell-based. As for the experimental part: Bacterial cultures were prepared at initial inoculums of ˜5×10^5 CFU/ml, and aliquots of 190 μl per well were dispensed. Ten μl of the indicated antibiotic solutions were added to each well. The starting concentration for each antibiotic solution was 2×MIC, with serial ½ dilutions. Two sets of dilutions were prepared, and 0.1 mM AOAA was added to one set. The plates were kept at 37° C. and 85% humidity for 20 hours.
as §1, §2

For another test, the system named is S. pneumoniae ATCC49619. Nature of the test: MIC of antibiotics with or without PAG/AOAA. Format: cell-based. The note with it: for MIC: Streptococcus pneumoniae. As for the experimental part: as §2
The test system of another test is P. aeruginosa PAO1. In words: MIC of antibiotics with or without PAG/AOAA. Format: cell-based. The note with it: for MIC: Pseudomonas aeruginosa. As to the method:
as §2

The subject of test [1] is E. coli ΔsseA (3MST-deficient) strain. Format: cell-based. As to conditions: Table 1; relative values of growth inhibition (negative numbers), ΔsseA vs wt E. coli.
For another test, the system named is pBR322 plasmid DNA. Nature of the test: Electrophoresis assay of DNA damage in vitro (Fenton reaction). As to conditions: NaHS:Fe3+ 6:1, with Cys and H2O2, pH 8.
The next test has as its system recA′::gfp E. coli. In kind it is cell-based. The note with it: NaHS 200 μM, aspartate-treated cells.
Test [2] deals with 3MST-deficient E. coli cells. Format: cell-based. As to conditions: diamide 25 μM, gentamicin 50 μg/ml for 5 min.
Where [3] appears, read: in the presence of 0.5 mM PAG + 0.05 mM AOAA.

For the molecule `C#CCC(N)C(=O)O` (racemic) [PAG, D,L-propargylglycine], the “Effect on H2S production (PbS staining)” value with CBS/CSE is “greatly decreased or eliminated PbS staining”.
Consider `c1ccc(-c2ccccn2)nc1` [2,2′-dipyridyl], for which the “Effect on toxicity of Gm” value in the test on E. coli cells is “substantially decreased the toxicity of Gm”. The “Protection against peroxide (in words)” value in the test on Wt E. coli cells (dipyridyl 0.5 mM pretreatment for 1 min) was “protected them rapidly against peroxide”.
For the molecule `NOCC(=O)O` [AOAA, amino-oxyacetate], the “Effect on H2S production (PbS staining)” value in the test on CBS/CSE is “greatly decreased or eliminated PbS staining”.
On to `O=C(N[C@H](CO)[C@H](O)c1ccc([N+](=O)[O-])cc1)C(Cl)Cl` [Chloramphenicol], for which the MIC in the test with E. faecium A2373 (A2373, antibiotic alone, read-out: Minimum inhibitory concentration) turned out to be 8 µg/mL; in the test with E. faecalis ATCC29212 (ATCC29212, antibiotic alone, read-out: Minimum inhibitory concentration) it was 8 µg/mL; in the test on S. pneumoniae ATCC49619 (ATCC49619, antibiotic alone, read-out: Minimum inhibitory concentration), 8 µg/mL; with P. aeruginosa PAO1 (PAO1, antibiotic alone, read-out: Minimum inhibitory concentration) it was 64 µg/mL. Besides, the Minimum inhibitory concentration is 2 µg/mL in the test with E. faecium A2373 (in the presence of 0.1 mM AOAA); 8 µg/mL in the test with E. faecium A2373 (setting [3]); 8 µg/mL in the test with E. faecium A2373 (in the presence of 1 mM PAG); 0.5 µg/mL with E. faecalis ATCC29212 (in the presence of 0.1 mM AOAA); 8 µg/mL in the test with E. faecalis ATCC29212 (setting [3]); 8 µg/mL in the test with E. faecalis ATCC29212 (in the presence of 1 mM PAG). Moreover, the Minimum inhibitory concentration with S. pneumoniae ATCC49619 (in the presence of 0.1 mM AOAA) was 4 µg/mL; with S. pneumoniae ATCC49619 (setting [3]), 4 µg/mL; in the test with S. pneumoniae ATCC49619 (in the presence of 1 mM PAG) it was 4 µg/mL; with P. aeruginosa PAO1 (in the presence of 0.1 mM AOAA), 64 µg/mL; with P. aeruginosa PAO1 (setting [3]), 64 µg/mL; in the test on P. aeruginosa PAO1 (in the presence of 1 mM PAG) it was 64 µg/mL. Besides, the “ΔsseA inhibition of growth” value in [1] is −136.
`[Na+].[SH-]` [NaHS]: in the test with Wt E. coli cells (NaHS 200 μM pretreatment for 1 min), the “Increase in resistance to peroxide” value is > 20 times. Also, the “Inhibition of Fenton-mediated DNA damage” value in the test on pBR322 plasmid DNA is “completely inhibited DNA damage”. Moreover, the “Effect on hyper-induction of SOS by gentamicin” value in the test on recA′::gfp E. coli was “completely suppressed the hyper-induction of SOS by gentamicin”.
`CN[C@H](CC(C)C)C(=O)N[C@H]1C(=O)N[C@@H](CC(N)=O)C(=O)N[C@H]2C(=O)N[C@H]3C(=O)N[C@H](C(=O)N[C@H](C(=O)O)c4cc(O)cc(O)c4-c4cc3ccc4O)[C@H](O)c3ccc(c(Cl)c3)Oc3cc2cc(c3O[C@@H]2O[C@H](CO)[C@@H](O)[C@H](O)[C@H]2O[C@H]2C[C@](C)(N)[C@H](O)[C@H](C)O2)Oc2ccc(cc2Cl)[C@H]1O` [Vancomycin]: the MIC was > 64 µg/mL in the test on E. faecium A2373 (A2373, read-out: Minimum inhibitory concentration); 2 µg/mL in the test with E. faecalis ATCC29212 (ATCC29212, read-out: Minimum inhibitory concentration); 0.125 µg/mL with S. pneumoniae ATCC49619 (ATCC49619, read-out: Minimum inhibitory concentration); > 64 µg/mL in the test with P. aeruginosa PAO1 (PAO1, read-out: Minimum inhibitory concentration). Also, the Minimum inhibitory concentration in the test with E. faecium A2373 (in the presence of 0.1 mM AOAA) is 2 µg/mL; with E. faecium A2373 (setting [3]), >64 µg/mL; in the test on E. faecium A2373 (in the presence of 1 mM PAG), >64 µg/mL; in the test with E. faecalis ATCC29212 (in the presence of 0.1 mM AOAA) it was 1 µg/mL; in the test with E. faecalis ATCC29212 (setting [3]) it was 2 µg/mL; in the test with E. faecalis ATCC29212 (in the presence of 1 mM PAG) it was 2 µg/mL. Also, the Minimum inhibitory concentration is 0.125 µg/mL in the test with S. pneumoniae ATCC49619 (in the presence of 0.1 mM AOAA); 0.125 µg/mL with S. pneumoniae ATCC49619 (setting [3]); 0.125 µg/mL in the test with S. pneumoniae ATCC49619 (in the presence of 1 mM PAG); >64 µg/mL with P. aeruginosa PAO1 (in the presence of 0.1 mM AOAA); >64 µg/mL in the test on P. aeruginosa PAO1 (setting [3]); >64 µg/mL in the test on P. aeruginosa PAO1 (in the presence of 1 mM PAG). For the same molecule, the “ΔsseA inhibition of growth” value in test [1] is reported as −198.
For the molecule `CN(C)C(=O)/N=N/C(=O)N(C)C` [diamide], the “Protection against Gm” value in test [2] was “protected 3MST mutant cells against Gm”.
With gentamicin, the Minimum inhibitory concentration was >64 µg/mL in the test on E. faecium A2373 (antibiotic alone); >64 µg/mL in the test with E. faecium A2373 (in the presence of 0.1 mM AOAA); >64 µg/mL with E. faecium A2373 (setting [3]); >64 µg/mL with E. faecium A2373 (in the presence of 1 mM PAG); 32 µg/mL in the test on E. faecalis ATCC29212 (antibiotic alone); 1 µg/mL in the test on E. faecalis ATCC29212 (in the presence of 0.1 mM AOAA). The Minimum inhibitory concentration was 4 µg/mL with E. faecalis ATCC29212 (setting [3]); 32 µg/mL with E. faecalis ATCC29212 (in the presence of 1 mM PAG); 32 µg/mL in the test on S. pneumoniae ATCC49619 (antibiotic alone); 8 µg/mL in the test with S. pneumoniae ATCC49619 (in the presence of 0.1 mM AOAA); 16 µg/mL with S. pneumoniae ATCC49619 (setting [3]); 32 µg/mL in the test on S. pneumoniae ATCC49619 (in the presence of 1 mM PAG). For the same molecule, the Minimum inhibitory concentration in the test with P. aeruginosa PAO1 (antibiotic alone) came out at 2 µg/mL; in the test on P. aeruginosa PAO1 (in the presence of 0.1 mM AOAA), 2 µg/mL; in the test on P. aeruginosa PAO1 (setting [3]), 4 µg/mL; in the test with P. aeruginosa PAO1 (in the presence of 1 mM PAG) it was 2 µg/mL.
